This note sets out measurements from PubChem BioAssay (NCI).

Holding throughout (experiment): NCI-60 cell line screen, 48 h
Assay [1] concerns M14 melanoma.
The test system of assay [2] is SNB-75 CNS.
In assay [3] the test system is OVCAR-3 ovarian.
Assay [4] relates to CAKI-1 renal.
Assay [5] has as its system MALME-3M melanoma.
The test system of assay [6] is UACC-62 melanoma.
The test system of assay [7] is EKVX NSCLC.
The subject of assay [8] is MOLT-4 leukemia.
For assay [9], the system named is PC-3 prostate.

Values joined by “and” are separate entries in the source; they are usually repeats but may differ in a detail not shown here. Equal entries are not always repeated.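 Each compound was tested at five concentrations against cells in 96-well plates for 48 hours. GI50 marks 50% less growth. TGI: total growth inhibition.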

In the case of `Cc1ccc(C)c(NC(=O)C(=O)CC(=O)C2CCOC2=O)c1` (stereo not given), the TGI in assay [1], in assay [2], in [3], in assay [4], in [5] and in [6] was greater than 100 µM in each case. The same molecule returned a TGI in [7] greater than 100 µM.
`CC1[C@@H]2[C@@H](C=C3C4CCC5Cc6nc7c(nc6C[C@@]5(C)C4C[C@H](O)[C@]32CO)CC2CCC3C4=C[C@H]5O[C@@]6(O[C@@](C)(CO)C[C@@H]6O)C(C)[C@@]5(O)[C@]4(C)[C@@H](O)CC3[C@]2(C)C7)O[C@]12CCC(C)(C)O2` (stereo not given in full): the TGI in assay [1] was 0.0639 µM; in assay [2], 0.0159 µM and 0.0134 µM; in assay [3] it was greater than 3.65 µM; in assay [4] it was greater than 3.65 µM; in assay [5], 0.722 µM and 0.183 µM; in [6] it was 0.0745 µM. The TGI is 0.0161 µM in assay [8]; 0.749 µM and 2 µM in [7]. Also, the GI50 in [2] is 0.000741 µM; in [3], 1.99 µM; in [4], 0.0406 µM; in assay [5] it was 0.00982 µM; in assay [6] it was 0.00489 µM; in assay [7], 0.0119 µM.
With `CCC(C)CN1C(=O)NC(C)(Cc2ccccc2)C1=O` (stereo not given), the TGI in assay [1], in [2], in assay [4], in assay [5] and in [7] was greater than 100 µM throughout.
For the molecule `N=C(c1ccccc1)N(c1ccccc1)c1ccccc1`, the TGI in assay [1] is greater than 100 µM; in [2], greater than 100 µM; in assay [4] it was greater than 100 µM; in assay [5] it was 94.6 µM; in assay [7] it was greater than 100 µM.
Take `O=C1c2ccccc2C2(O)Nc3cc(O)ccc3C12O` (stereo not given): the TGI in [1], in assay [2], in assay [3], in assay [4], in assay [5] and in [6] was greater than 100 µM throughout. Besides, the TGI in assay [8] and in assay [7] was greater than 100 µM each time.
Take `COc1ccc(/C(=N/NC(N)=O)C2(O)C(=O)Nc3ccc([N+](=O)[O-])cc32)cc1` (stereo not given): the TGI in assay [1] was 31.1 µM; in assay [2] it was 69.8 µM; in assay [3] it was 33.1 µM; in assay [4], 57.7 µM; in [5], greater than 10 µM; in assay [6] it was 43.6 µM. The figures for the TGI in assay [8] and in [7] were 50 µM and greater than 100 µM, respectively.
Consider `CC[P+](C)(Cc1ccccc1)c1ccccc1` (stereo not given), for which the TGI in [1], in assay [2], in assay [3], in [5], in [6] and in [8] was greater than 100 µM each time. Besides, the TGI in [7] is greater than 100 µM.
Regarding `C#CCC[C@@H]1O[C@@]1(C)CC/C=C(\C)CC/C=C/C=O`, the TGI is 48.3 µM in [1]; greater than 100 µM in assay [2]; 85.9 µM in assay [3]; 48.3 µM in assay [5]; 36.6 µM in assay [6]; 52.9 µM in assay [8]. In assay [7], the TGI was greater than 100 µM.
As to `C=CCC1OC(C)(C)Oc2ccc(OCOCCOC)cc21` (stereo not given), the TGI in assay [1], in assay [2], in [3], in [4], in [5] and in assay [6] was greater than 100 µM throughout. The TGI in assay [8] and in assay [7] was greater than 100 µM in each case.
In the case of `N#Cc1cccc(N2C(=O)c3c(c(-c4ccccc4)c(-c4ccc(Sc5ccc(-c6c(-c7ccccc7)c7c(c(-c8ccccc8)c6-c6ccccc6)C(=O)N(c6cccc(C#N)c6)C7=O)cc5)cc4)c(-c4ccccc4)c3-c3ccccc3)C2=O)c1`, the TGI in assay [1], in assay [3], in assay [5], in assay [6], in [8] and in assay [7] was greater than 100 µM throughout.
As for `CC1=C(C(=O)NCc2ccccc2)C(c2ccc(C3C(C(=O)NCc4ccccc4)=C(C)NC(C)=C3C(=O)NCc3ccccc3)cc2)C(C(=O)NCc2ccccc2)=C(C)N1`, the TGI was 24.1 µM in assay [1]; 22.9 µM in assay [3]; 34.9 µM in assay [4]; 36.3 µM in assay [5]; 22.2 µM in [6]; greater than 100 µM in [8]. Also, the TGI in assay [7] was found to be 28.9 µM.
On to `Nc1nc(CCC(=O)Nc2cccc(C(F)(F)F)c2)cc(-c2cccc3ccccc23)n1`, for which the TGI in assay [1], in assay [2], in [3], in assay [4], in [5] and in [6] was greater than 100 µM in each case. Also, the TGI in [8] and in assay [7] was greater than 100 µM each time.
Take `CC1CC2C3CC(F)C4=CC(=O)C=CC4(C)C3(F)C(O)CC2(C)C1(O)C(=O)COC(=O)C(C)(C)C` (stereo not given): the TGI in assay [1], in [2], in [3], in assay [4], in assay [5] and in [6] was greater than 100 µM throughout. Moreover, the TGI in assay [8] and in assay [7] was greater than 100 µM throughout.
For `COc1ccc(S(=O)(=O)NC(C)C(=O)O)cc1` (stereo not given), the TGI in assay [1], in assay [2], in assay [3], in assay [4], in [5] and in assay [6] was greater than 100 µM throughout. Besides, the TGI in [8] and in assay [7] was greater than 100 µM throughout.
In the case of `CN(C)c1ccc2c(c1)C(=O)N(OS(=O)(=O)c1ccc([N+](=O)[O-])cc1)C2=O`, the TGI is 38.8 µM in assay [1]; greater than 100 µM in [2]; greater than 10 µM in [3]; 54.2 µM in assay [4]; greater than 100 µM in assay [5]; 31.8 µM in assay [6]. In addition, the TGI in [7] is greater than 100 µM.
Take `CCOc1ccccc1NC(=O)CCC(=O)OC`: the TGI in assay [1], in [2], in assay [3], in [4], in assay [5] and in assay [6] was greater than 100 µM each time. Also, the TGI in [8] and in assay [7] was greater than 100 µM each time.
Take `O=C(O)CN(c1ccccc1)S(=O)(=O)c1ccc(NC(=O)c2ccccc2)cc1`: the TGI in assay [1], in assay [2], in [4], in [5], in assay [6] and in [8] was greater than 100 µM each time. Besides, in assay [7], the TGI was greater than 100 µM.
As for `N#C/C(=C\c1ccccc1O)C(N)=O`, the TGI in assay [1] was greater than 100 µM; in assay [2] it was 69.7 µM; in [3], greater than 100 µM; in assay [4], greater than 100 µM; in [5], greater than 100 µM; in assay [6], greater than 100 µM. Also, the TGI in [8] and in assay [7] was greater than 100 µM throughout.
As to `Cc1ccc(C(=O)O/N=C2/CCCC/C2=C\c2ccccc2)cc1`, the TGI in [1], in assay [2], in assay [3], in [4], in assay [5] and in assay [6] was greater than 100 µM throughout. The same molecule displayed a TGI in assay [7] greater than 100 µM.
Take `N#Cc1cc(C#N)c(Cl)nc1N`: the TGI in assay [2], in [3], in assay [5], in [6], in assay [8] and in [9] was greater than 10 µM in each case. In [7], this molecule registered a TGI greater than 10 µM.
As for `CC1=CC2CC(C)=C(CC[C@]3(C)CC[C@H]([C@@H](C)C(=O)O)OO3)C(C)(C)C2CC1` (stereo not given in full), the TGI in assay [1] was 2.67 µM; in assay [2], 2.29 µM; in assay [3], 2.99 µM; in assay [4], 2.76 µM; in assay [5] it was 2.02 µM; in assay [6] it was 2.81 µM. This molecule also yielded a TGI in [7] of 3.64 µM.
In the case of `NNC(=S)N/N=C(\CCCC(=O)NCCc1ccccc1)CC(=O)c1ccccc1`, the TGI in assay [1], in [3], in assay [5], in [6] and in [7] was greater than 100 µM each time.
Consider `O=C1OC(=O)c2c1c(-c1ccccc1)cn2-c1ccc(Cl)cc1`, for which the TGI in [1], in [2], in assay [3], in assay [5], in assay [8] and in [7] was greater than 100 µM each time.
For `Nc1ncnc2c1ncn2C1OC(COP(=O)(O)CP(=O)(O)O)C(O)C1O` (stereo not given), the TGI in assay [1], in [2], in [4], in assay [5], in assay [6] and in assay [8] was greater than 100 µM in each case. Besides, the TGI in [9] and in assay [7] was greater than 100 µM each time.
As for `Cc1cccc(C(=O)c2cccc3ccccc23)c1C(=O)O`, the TGI in assay [1], in [2], in assay [3], in assay [5], in [6] and in [8] was greater than 100 µM each time. This molecule registered a TGI in [7] greater than 100 µM.
With `COC(=O)Cc1cc(OC)c(OC)cc1Br`, the TGI in assay [1], in assay [2], in assay [3], in [4], in assay [5] and in assay [6] was greater than 100 µM each time. Besides, the TGI in [8] and in [7] was greater than 100 µM in each case.
Take `COc1cc2c(cc1O)C=NCC2`: the TGI in [1], in [2], in assay [3], in assay [4], in assay [5] and in assay [6] was greater than 100 µM each time. Besides, the TGI in [8] and in assay [7] was greater than 100 µM each time.
`c1ccc(SC2(Sc3ccccc3)CCCC2)cc1`: the TGI in assay [1], in [2], in [3], in assay [4], in [6] and in assay [8] was greater than 100 µM in each case. In addition, in assay [7], the TGI is greater than 100 µM.
As to `CCC1(C)NN=c2s/c(=C/c3ccc(OC)cc3)c(=O)n2N1` (stereo not given), the TGI in assay [1], in [2], in assay [3], in [4], in assay [5] and in assay [6] was greater than 100 µM each time. The TGI in assay [8] and in [7] was greater than 100 µM throughout.
As for `CCC[CH2][Sn]([CH2]CCC)([O]C(=O)c1c(F)cccc1F)[O]C(=O)c1c(F)cccc1F`, the GI50 in [1] is 1.08 µM; in assay [2], 0.509 µM; in assay [3] it was 1.14 µM; in assay [4], 0.38 µM; in assay [5], 0.462 µM; in assay [6], 0.884 µM. Besides, the results for the GI50 in assay [8] and in [7] were 0.239 µM and 1.04 µM, respectively. The TGI in assay [1] was found to be 2.26 µM; in assay [2] it was 1.82 µM; in assay [3] it was 2.36 µM; in assay [4], 1.7 µM; in assay [5] it was 1.8 µM; in [6] it was 2.1 µM. Moreover, the values for the TGI in assay [8] and in assay [7] were 0.818 µM and 2.22 µM, respectively.
As for `O=C(O)c1ccccc1Cc1ccco1`, the TGI in assay [1], in assay [2], in assay [3], in [4], in [5] and in assay [6] was greater than 100 µM throughout. In addition, the TGI in [8] and in [7] was greater than 100 µM throughout.
For the molecule `FC(F)(F)C1(Cl)C(c2ccccc2)=C1c1ccccc1`, the TGI in assay [1] is 25.6 µM; in assay [3], 31.2 µM; in assay [4], 25.3 µM; in assay [5] it was 28.5 µM; in assay [6] it was 27 µM; in assay [8] it was greater than 100 µM. Moreover, the TGI in assay [7] is 29.9 µM.
